Measured values reported in US7416864B2, “Method for treating dyskinesia” (Schwarz Pharma AG, priority 2004, dated 2008).
Entries after “also recorded” stand apart in the source; their conditions may differ.

Test system: Reserpine-Induced Tardive Dyskinesia in Mice
Assay: Reserpine-induced tardive dyskinesia in mice, vacuous chewing movements (VCM) count
Format: in vivo
Settings: for VCM frequency per 10 min. Mean ± S.E.M.: 1 hour post-administration, male CD1 mice
Protocol: Male CD1 mice (Charles River Laboratories, France), about 3 month-old were used. During the acclimatization period, animals were housed 5 per cage, in Makrolon type IlIl cages, in the animal room (temperature: 20±2° C., humidity: minimum 45%, air changes: >12 per hour, light/dark cycle of 12 h/12 h [on at 7:00 A.M:]. Animals were allowed a minimum of 5 days period before experiment for acclimatization.
Reserpine (Sigma) was dissolved in glacial acetic acid, diluted in water and administered s.c. at 1 mg/kg. 2 injections were given separated by 48 h. SPM 927 was studied at 3 doses (3, 10 and 30 mg/kg; i.p.) given as a single injection. Clonazepam was administered at 1 mg/kg, i.p. (3).
Reserpine was given twice (Day 1 and Day 3) and SPM 927 was administered 24 h after the last injection of reserpine (Day 4). Behavioral assessment was carried out 1 hour after drug injection (for 10 min). For the behavioral assessment, animals were placed in a plexiglass cage and after 5 min period of habituation, vacuous chewing movements (VCM) were counted for 10 min. VCM occurring during a grooming period were not taken into account.
Results are expressed as means±S.E.M.s of ten individual values. Statistical analyses was done with ANOVA (one way) and Dunnett's t-test. Significance was considered as p<0.05.

## COC[C@@H](NC(C)=O)C(=O)NCc1ccccc1 [SPM 927, (R)-2-acetamide-N-benzyl-3-methoxypropionamide]
3 mg/kg i.p., lowest dose
  effect on reserpine-induced dyskinesia (in words): little or no effect
10 mg/kg i.p.
  effect on number of vacuous chewing movements (in words): reduced the number of vacuous chewing movements
30 mg/kg i.p., highest dose, statistically significant (p<0.05 versus vehicle group)
  effect on number of vacuous chewing movements (in words): reduced the number of vacuous chewing movements
Reserpine 1 mg/kg s.c. + SPM 927 3 mg/kg i.p., reserpine + vehicle group 41.4 ± 6.4
  VCM frequency per 10 min. Mean ± S.E.M.: 48.6 ± 10.6 per 10 min
Reserpine 1 mg/kg s.c. + SPM 927 10 mg/kg i.p., reserpine + vehicle group 41.4 ± 6.4
  VCM frequency per 10 min. Mean ± S.E.M.: 26.6 ± 5.7 per 10 min
Reserpine 1 mg/kg s.c. + SPM 927 30 mg/kg i.p., p < 0.05 versus reserpine + vehicle group (41.4 ± 6.4)
  VCM frequency per 10 min. Mean ± S.E.M.: 23.9 ± 7.9 per 10 min
mice, no dose stated
  overall effect on reserpine-induced tardive dyskinesia / vacuous chewing movements (in words): attenuates reserpine induced vacuous chewing movements; also recorded: significant efficacy in reducing tardive dyskinesia
